Assay results taken from patent US8546440B2, “Substituted bicyclic imidazole derivatives as gamma secretase modulators” (Janssen Pharmaceuticals, Inc., priority 2008, dated 2013).

Columns and labels:
Format in all cases: cell-based
Aβ42 [1] = experiment: Screening for γ-secretase-modulating activity, Method 2: Aβ42 Alphalisa in supernatant of SKNBE2 cells carrying APP 695 wild type (Table 12c); conditions: Method 2, Table 12c, incubated overnight
Description: (§1) Screening was carried out using SKNBE2 cells carrying the APP 695—wild type, grown in Dulbecco's Modified Eagle's Medium/Nutrient mixture F-12 (DMEM/NUT-mix F-12) (HAM) provided by Invitrogen (cat no. 10371-029) containing 5% Serum/Fe supplemented with 1% non-essential amino acids, 1-glutamine 2 mM, Hepes 15 mM, penicillin 50 U/ml (units/ml) en streptomycin 50 μg/ml. Cells were grown to near confluency.
(§2) The screening was performed using a modification of the assay as described in Citron et al (1997) Nature Medicine 3: 67. Briefly, cells were plated in a 384-well plate at 10^4 cells/well in Ultraculture (Lonza, BE12-725F) supplemented with 1% glutamine (Invitrogen, 25030-024), 1% non-essential amino acid (NEAA), penicillin 50 U/ml en streptomycin 50 μg/ml in the presence of test compound at different test concentrations. The cell/compound mixture was incubated overnight at 37° C., 5% CO2, The next day the media were assayed by two sandwich immuno-assays, for Aβ42 and Aβtotal.
(§3) Aβtotal and Aβ42 concentrations were quantified in the cell supernatant using the Aphalisa technology (Perkin Elmer). Alphalisa is a sandwich assay using biotinylated antibody attached to streptavidin coated donorbeads and antibody conjugated to acceptor beads. In the presence of antigen, the beads come into close proximity. The excitation of the donor beads provokes the release of singlet oxygen molecules that trigger a cascade of energy transfer in the acceptor beads, resulting in light emission. To quantify the amount of Aβ42 in the cell supernatant, monoclonal antibody specific to the C-terminus of Aβ42 (JRF/cAβ42/26) was coupled to the receptor beads and biotinylated antibody specific to the N-terminus of Aβ (JRF/AβN/25) was used to react with the donor beads. To quantify the amount of Aβtotal in the cell supernatant, monoclonal antibody specific to the N-terminus of Aβ (JRF/AβN/25) was coupled to the receptor beads and biotinylated antibody specific to the mid region of Aβ (biotinylated 4G8) was used to react with the donor beads.
(§4) To obtain the values reported in Table 12c, the data are calculated as percentage of the maximum amount of amyloid Beta 42 measured in the absence of the test compound. The sigmoidal dose response curves were analyzed using non-linear regression analysis with percentage of the control plotted against the log concentration of the compound. A 4-parameter equation was used to determine the IC50.

Aβtotal [2] = experiment: Screening for γ-secretase-modulating activity, Method 2: Aβtotal Alphalisa in supernatant of SKNBE2 cells carrying APP 695 wild type (Table 12c); conditions: Method 2, Table 12c, incubated overnight
Description: as §1, §2, §3, §4

Aβtotal [3] = experiment: Screening for γ-secretase-modulating activity, Method 1: Aβtotal sandwich ELISA in supernatant of SKNBE2 cells carrying APP 695 wild type (Tables 12a, 12b)
Description: as §1, with “Gibco” for “Invitrogen”, “31330-38)” for “10371-029)”, “acids.” for “acids, 1-glutamine 2 mM, Hepes 15 mM, penicillin 50 U/ml (units/ml) en streptomycin 50 μg/ml.”
(§5) The screening was performed using the assay as described in Citron et al (1997) Nature Medicine 3: 67. Briefly, cells were plated in a 96-well plate at about 10^5 cells/ml one day prior to addition of compounds. Compounds were added to the cells in Ultraculture (Lonza, BE12-725F) supplemented with 1% glutamine (Invitrogen, 25030-024) for 18 hours. The media were assayed by two sandwich ELISAs, for Aβ42 and Aβtotal. Toxicity of the compounds was assayed by WST-1 cell proliferation reagent (Roche, 1 644 807) according to the manufacturer's protocol.
To quantify the amount of Aβtotal in the cell supernatant, samples and standards were added to a 6E10-coated plate. The plate was allowed to incubate overnight at 4° C. in order to allow formation of the antibody-amyloid complex. Following this incubation and subsequent wash steps a selective anti-Aβ-antibody conjugate (biotinylated 4G8) was added and incubated for a minimum of 1 hour in order to allow formation of the antibody-Amyloid-antibody-complex. After incubation and appropriate wash steps, a Streptavidine-Peroxidase-Conjugate was added, followed 30 minutes later by an addition of Quanta Blu fluorogenic peroxidase substrate according to the manufacturer's instructions (Pierce Corp., Rockford, Ill.).
(§6) To obtain the values reported in Table 12a, the sigmoidal dose response curves were analysed by computerised curve-fitting, with percent of inhibition plotted against compound concentration. A 4-parameter equation (model 205) in XLfit was used to determine the IC50. The top and the bottom of the curve were fixed to 100 and 0, respectively, and the hill slope was fixed to 1. The IC50 represents the concentration of a compound that is required for inhibiting a biological effect by 50% (Here, it is the concentration where Aβ peptide level is reduced by 50%).
as §4, with “12b,” for “12c,”, “IC50. The values reported in Table 12b are averaged IC50 values.” for “IC50.”

Aβ42 [4] = experiment: Screening for γ-secretase-modulating activity, Method 1: Aβ42 sandwich ELISA in supernatant of SKNBE2 cells carrying APP 695 wild type (Tables 12a, 12b)
Description: as §1, with “Gibco” for “Invitrogen”, “31330-38)” for “10371-029)”, “acids.” for “acids, 1-glutamine 2 mM, Hepes 15 mM, penicillin 50 U/ml (units/ml) en streptomycin 50 μg/ml.”
as §5
To quantify the amount of Aβ42 in the cell supernatant, commercially available Enzyme-Linked-Immunosorbent-Assay (ELISA) kits were used (Innotest® β-Amyloid(1-42), Innogenetics N.V., Ghent, Belgium). The Aβ42 ELISA was performed essentially according to the manufacturer's protocol. Briefly, the standards (dilutions of synthetic Aβ1-42) were prepared in polypropylene Eppendorf with final concentrations of 8000 down to 3.9 pg/ml (1/2 dilution step). Samples, standards and blanks (100 μl) were added to the anti-Aβ42-coated plate supplied with the kit (the capture antibody selectively recognizes the C-terminal end of the antigen). The plate was allowed to incubate 3 h at 25° C. in order to allow formation of the antibody-amyloid complex. Following this incubation and subsequent wash steps a selective anti-Aβ-antibody conjugate (biotinylated 3D6) was added and incubated for a minimum of 1 hour in order to allow formation of the antibody-Amyloid-antibody-complex. After incubation and appropriate wash steps, a Streptavidine-Peroxidase-Conjugate was added, followed 30 minutes later by an addition of 3,3′,5,5′-tetramethylbenzidine (TMB)/peroxide mixture, resulting in the conversion of the substrate into a coloured product. This reaction was stopped by the addition of sulfuric acid (0.9 N) and the colour intensity was measured by means of photometry with an ELISA-reader with a 450 nm filter.
as §6
as §4, with “12b,” for “12c,”, “IC50. The values reported in Table 12b are averaged IC50 values.” for “IC50.”

[5] = Homo sapiens, Table 12b, Method 1, SKNBE2 cells carrying APP 695 wild type, cell supernatant ELISA, averaged IC50 values
[6] = Homo sapiens, Table 12b, Method 1, SKNBE2 cells carrying APP 695 wild type, cell supernatant ELISA, averaged IC50 values, percentage of control vs log concentration
[7] = Method 1, Table 12a, SKNBE2 cells carrying APP 695 wild type, compounds 18 hours, ELISA, curve top and bottom fixed to 100 and 0, hill slope 1
[8] = Table 12b, Method 1, SKNBE2 cells carrying APP 695 wild type, cell supernatant ELISA, averaged IC50 values
[9] = Table 12b, Method 1, SKNBE2 cells carrying APP 695 wild type, cell supernatant ELISA, averaged IC50 values, percentage of control vs log concentration
[10] = Homo sapiens, Method 1, Table 12a, SKNBE2 cells carrying APP 695 wild type, compounds 18 hours, ELISA, curve top and bottom fixed to 100 and 0, hill slope 1

Row | SMILES | IC50 (Aβtotal [3]; [5]) | IC50 (Aβ42 [4]; [6]) | IC50 (Aβtotal [3]; [10]) | IC50 (Aβ42 [4]; [10]) | other results
1 | COCc1c(-c2ccccc2)nc2c(Nc3ccc(-n4cnc(C)c4)c(F)c3)cccn12 [Compound 104] |  |  |  |  | IC50 (Aβ42 [1]): 29 nM; IC50 (Aβtotal [2]): 7240 nM
2 | COc1nc(Nc2cccn3c(C)c(-c4ccccc4Cl)nc23)ccc1-n1cnc(C)c1 [Compound 139] |  |  |  |  | IC50 (Aβ42 [1]): 5 nM; IC50 (Aβtotal [2]): 4270 nM
3 | Cc1cn(-c2ccc(Nc3cccn4cc(CC5CCOCC5)nc34)cc2F)cn1 [Compound 115] |  |  |  |  | IC50 (Aβ42 [1]; Homo sapiens): 257 nM; IC50 (Aβtotal [2]; Homo sapiens): 8320 nM
4 | COc1cc(Nc2cc(C(F)(F)F)nn3cc(C4CCOCC4)nc23)ccc1-n1cnc(C)c1 [Compound 158] |  |  |  |  | IC50 (Aβ42 [1]): 71 nM; IC50 (Aβtotal [2]): 8910 nM
5 | Cc1ncn(-c2ccc(Nc3cccn4cc(-c5ccc(F)cc5C)nc34)cc2F)n1 [Compound 91] | 18600 nM | 72 nM |  |  | 
6 | CCCCCCc1cnc2c(Nc3ccc(-n4cnc(C)c4)c(OC)c3)cccn12 [Compound 59] |  |  |  |  | IC50 (Aβtotal [3]; [7]): > 3000 nM; IC50 (Aβtotal [3]; [8]): > 3020 nM; IC50 (Aβ42 [4]; [7]): 123 nM; IC50 (Aβ42 [4]; [9]): 145 nM
7 | COc1cc(Nc2cc(C(F)(F)F)cn3cc(CO)nc23)ccc1-n1cnc(C)n1 [Compound 152] | > 3020 nM | 1780 nM |  |  | 
8 | COc1cc(Nc2cccn3cc(C)nc23)ccc1-n1cnc(C)n1 [Compound 77] | > 10000 nM | 4360 nM | > 10000 nM | 2690 nM | 
9 | COc1cccc(-c2nc3c(Nc4ccc(-n5cnc(C)c5)cn4)cccn3c2C)c1 [Compound 68] |  |  |  |  | IC50 (Aβtotal [3]; [7]): > 1000 nM; IC50 (Aβtotal [3]; [8]): > 3020 nM; IC50 (Aβ42 [4]; [7]): 18 nM; IC50 (Aβ42 [4]; [9]): 18 nM
10 | COc1cc(Nc2nc(Br)cn3cc(-c4ccc(F)cc4C)nc23)ccc1-n1cnc(C)n1 [Compound 177] | > 3020 nM | 234 nM |  |  | 
11 | Cc1ncn(-c2ccc(Nc3cccn4cc(-c5cc(C(F)(F)F)ccc5C)nc34)nc2)n1 [Compound 81] |  |  |  |  | IC50 (Aβtotal [3]; [8]): > 10000 nM; IC50 (Aβ42 [4]; [9]): 380 nM
12 | Cc1cc(F)ccc1-c1cn2cccc(Nc3ccc(-n4ncnc4C)c(F)c3)c2n1 [Compound 131] | > 10000 nM | 245 nM |  |  | 
13 | COc1cc(Nc2cccn3cc(CN4CCCCC4)nc23)ccc1-n1cnc(C)c1 [Compound 55] |  |  |  |  | IC50 (Aβtotal [3]; [8]): > 3020 nM; IC50 (Aβ42 [4]; [9]): 1290 nM
14 | COc1cc(Nc2cc(C(F)(F)F)nn3cc(C)nc23)ccc1-n1cnc(C)c1 [Compound 164] |  |  |  |  | IC50 (Aβtotal [3]; [8]): > 10000 nM; IC50 (Aβ42 [4]; [9]): 178 nM
15 | CCCCc1cn2cccc(Nc3ccc(-n4cnc(C)c4)c(OC)c3)c2n1 [Compound 51] |  |  |  |  | IC50 (Aβtotal [3]; [7]): > 3000 nM; IC50 (Aβtotal [3]; [8]): > 3020 nM; IC50 (Aβ42 [4]; [7]): 39 nM; IC50 (Aβ42 [4]; [9]): 38 nM

More lines, main results first:

Row | IC50 (Aβtotal [3]; [5]) | IC50 (Aβ42 [4]; [6]) | IC50 (Aβtotal [3]; [10]) | IC50 (Aβ42 [4]; [10]) | SMILES | other results
16 | > 3020 nM | 51 nM | > 1000 nM | 58 nM | COc1cc(Nc2cccn3c(I)c(-c4ccc(F)cc4)nc23)ccc1-n1cnc(C)c1 [Compound 57] | 
17 | > 3020 nM | 68 nM | > 3000 nM | 70 nM | COc1cc(Nc2cccn3cc(COC(C)C)nc23)ccc1-n1cnc(C)c1 [Compound 54] | 
18 | > 3020 nM | 45 nM | > 3000 nM | 57 nM | COc1cc(Nc2cccn3cc(-c4ccc(C(F)(F)F)cc4)nc23)ccc1-n1cnc(C)c1 [Compound 30] | 
19 | > 1000 nM | 13 nM |  |  | COc1cc(Nc2cccn3c(CO)c(-c4ccc(F)cc4)nc23)ccc1-n1cnc(C)c1 [Compound 101] | 
20 | > 3020 nM | 295 nM |  |  | COc1cc(Nc2cccn3cc(C4CC4)nc23)ccc1-n1cnc(C)c1 [Compound 116] | 
21 | > 3020 nM | 56 nM | > 3000 nM | 59 nM | COc1cc(Nc2cccn3cc(-c4cccc(F)c4)nc23)ccc1-n1cnc(C)c1 [Compound 19] | 
22 | 7410 nM | 363 nM | 8540 nM | 344 nM | COc1cc(Nc2cccn3cc(-c4ccccn4)nc23)ccc1-n1cnc(C)c1 [Compound 41] | 
23 | > 3020 nM | 112 nM | > 3000 nM | 113 nM | COc1cc(Nc2cccn3c(Br)c(-c4ccc(F)cc4)nc23)ccc1-n1cnc(C)c1 [Compound 22] | 
24 | > 10000 nM | 174 nM | > 3000 nM | 184 nM | COc1cc(Nc2cccn3cc(-c4ccccc4F)nc23)ccc1-n1cnc(C)c1 [Compound 88] | 
25 | > 10000 nM | 427 nM | > 10000 nM | 430 nM | COc1cc(Nc2cccn3cc(-c4cccnc4)nc23)ccc1-n1cnc(C)c1 [Compound 42] | 
26 | > 3020 nM | 87 nM | > 3000 nM | 89 nM | COc1cc(Nc2cccn3c(-c4ccccc4)c(-c4ccccc4)nc23)ccc1-n1cnc(C)c1 [Compound 13] | 
27 | > 3020 nM | 60 nM | > 3000 nM | 64 nM | COc1ccc(-c2cn3cccc(Nc4ccc(-n5cnc(C)c5)c(OC)c4)c3n2)cc1 [Compound 36] | 
28 | > 3020 nM | 41 nM | > 3000 nM | 57 nM | COc1cc(Nc2cccn3cc(-c4ccccc4Cl)nc23)ccc1-n1cnc(C)c1 [Compound 14] | 
29 | > 3020 nM | 617 nM |  |  | COc1cc(Nc2cccn3cc(-c4ccc5ncn(C)c5c4)nc23)ccc1-n1cnc(C)c1 [Compound 44] | 
30 | > 3020 nM | 71 nM | > 3000 nM | 80 nM | COc1cc(Nc2cccn3cc(-c4ccc(Cl)cc4)nc23)ccc1-n1cnc(C)c1 [Compound 17] | 
31 | > 3020 nM | 85 nM |  |  | COc1cc(Nc2cccn3cc(-c4ccc(F)cc4C)nc23)ccc1-n1cnc(C)n1 [Compound 89] | 
